Where a name gives a salt, the structure may show the parent alone.

Usually melting point stands for the temperature of the solid-liquid transition.

In turn, `O=C(c1ccc(-c2nn(Cc3cccc(Cl)c3)c(=S)[nH]2)cc1)N1CCN(c2cccc(Cl)c2)CC1` (as salt: hydrochloride) [Example 8, 2-[(3-Chlorophenyl)methyl]-5-[4-[[4-(3-chlorophenyl)-1-piperazinyl]carbonyl]phenyl]-2,4-dihydro-3H-1,2,4-triazole-3-thione] gave a melting point of 260 to 262 °C.
Next, `O=C(O)c1ccc(-c2nn(Cc3cccc(Cl)c3)c(=S)[nH]2)cc1` [Example 1, 4-[1-[(3-Chlorophenyl)methyl]-4,5-dihydro-5-thioxo-1H-1,2,4-triazol-3-yl]-benzoic acid]: 302 °C.
Next, `COC(=O)c1ccc(-c2nn(Cc3cccc(Cl)c3)c(=S)[nH]2)cc1` [Example 2, Methyl 4-[1-[(3-Chlorophenyl)methyl]-4,5-dihydro-5-thioxo-1H-1,2,4-triazol-3-yl]-benzoate]: 263.5 to 264.5 °C; `NC(=O)c1ccc(-c2nn(Cc3cccc(Cl)c3)c(=S)[nH]2)cc1` [Example 3, 4-[1-[(3-Chlorophenyl)methyl]-4,5dihydro-5-thioxo-1H-1,2,4-triazol-3-yl]-benzamide]: 310 to 312 °C; `CN(C)C(=O)c1ccc(-c2nn(Cc3cccc(Cl)c3)c(=S)[nH]2)cc1` [Example 4, 4-[1-[(3-Chlorophenyl)methyl]-4,5-dihydro-5-thioxo-1H-1,2,4-triazol-3-yl]-N,N-dimethyl-benzamide]: 302 to 304 °C.
`CC(C)CCNC(=O)c1ccc(-c2nn(Cc3cccc(Cl)c3)c(=S)[nH]2)cc1` [Example 5, 4-[1-[(3-Chlorophenyl)methyl]-4,5-dihydro-5-thioxo-1H-1,2,4-triazol-3-yl]-N-(3-methylbutyl)-benzamide] returned a melting point of 218 to 220 °C.
Then `C[C@@H](NC(=O)c1ccc(-c2nn(Cc3cccc(Cl)c3)c(=S)[nH]2)cc1)[C@@H](O)c1ccccc1` [Example 6, [1R, 2S]-4-[1-[(3-Chlorophenyl)methyl]-4,5-dihydro-5-thioxo-1H-1,2,4-triazol-3-yl]-N-(2-hydroxy-1-methyl-2-phenylethyl)-benzamide], with 220 to 222 °C.
In the case of `O=C(NCCO)c1ccc(-c2nn(Cc3cccc(Cl)c3)c(=S)[nH]2)cc1` [Example 7, 4-[1-[(3-Chlorophenyl)methyl]-4,5-dihydro-5-thioxo-1H-1,2,4-triazol-3-yl]-N-(2-hydroxyethyl)-benzamide], the melting point was 188 to 190 °C.
With `O=C(O)c1ccccc1-c1nn(Cc2cccc(Cl)c2)c(=S)[nH]1` [Example 11, 2-[1-[(3-Chlorophenyl)methyl]-4,5-dihydro-5-thioxo-1H-1,2,4-triazol-3-yl]-benzoic acid], the melting point was in the range of 234 to 238 °C.
Next, `O=C(O)c1cccc(-c2nn(Cc3cccc(Cl)c3)c(=S)[nH]2)c1` [Example 12, 3-[1-[(3-Chlorophenyl)methyl]-4,5-dihydro-5-thioxo-1H-1,2,4-triazol-3-yl]-benzoic acid]: 314 to 316 °C.
Then `NS(=O)(=O)c1ccc(-c2nn(Cc3cccc(Cl)c3)c(=S)[nH]2)cc1` [Example 13, 4-[1-[(3-chlorophenyl)methyl]-4,5dihydro-5-thioxo-1H-1,2,4-triazol-3-yl]-benzenesulfonamide], with 281 to 283 °C; and `COC(=O)C(CO)NC(=O)c1cccc(-c2nn(Cc3cccc(Cl)c3)c(=S)[nH]2)c1` (stereo not shown) [Example 14], with 188 to 196 °C.
Then `CN(C)CC(C)(C)CNC(=O)c1cccc(-c2nn(Cc3cccc(Cl)c3)c(=S)[nH]2)c1` [Example 15, 3-{1-[(3-Chlorophenyl)methyl]-1,2-dihydro-5thioxo-1H[1,2,4]triazol-3-yl}-N-(2-methyl-2-dimethylaminomethylpropyl)benzamide], with 173 to 175 °C.
As to `CN(C)C(=O)c1cccc(-c2nn(Cc3cccc(Cl)c3)c(=S)[nH]2)c1` [Example 16, 3-{1-[(3-Chlorophenyl)methyl]-1,2-dihydro-5thioxo-1H[1,2,4]triazol-3-yl}-N,N-dimethylbenzamide], the melting point was in the range of 184 to 187 °C.
Then `N#CCNC(=O)c1cccc(Cn2nc(-c3ccccc3Cl)[nH]c2=S)c1` [Example 17], with 178 to 182 °C; and `O=C(NCCF)c1cccc(Cn2nc(-c3ccccc3Cl)[nH]c2=S)c1` [Example 18], with 165 to 168 °C.

The values are drawn from US20040214864A1, “Novel compounds” (priority 2000, published 2004).
